Results as given in the METLIN SMRT retention time set (Domingo-Almenara et al. 2019).

Assay: gradient 5% acetonitrile 3 min, to 50% in 2 min, to 85% in 15 min, held 3 min, 100 µL/min
Conditions: column: Zorbax Extend-C18 2.1 x 50 mm; eluents: water / acetonitrile, 0.1% formic acid
Procedure, shortened: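 Data were gathered over 3 months by HPLC coupled to a quadrupole time-of-flight mass spectrometer, operated in positive and negative ionization mode. Mixtures of ~100 pure standards ran on a Zorbax Extend-C18 column (2.1 × 50 mm, 1.8 μm) at 100 μL/min, with water and acetonitrile each containing 0.1% formic acid and dead and dwell volumes of 40 μL and 900 μL. Retention time was read from adduct peaks picked by computer and checked manually.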

| Compound | RP-LC retention time |
| --- | --- |
| CCOc1ccc(C(=O)N2CCN(S(=O)(=O)c3cc4c5c(c3)CCC(=O)N5CCC4)CC2)cc1 | 815 s |
| CCCCNC(=O)Cn1c(=O)c2cnc(-c3ccc(Cl)cc3)nc2n(C)c1=O | 982 s |
| O=C(Cn1cnc2nc3c(cc2c1=O)CCCC3)Nc1cc(F)ccc1F | 738 s |
| CCCC(=O)NC1CCN(c2ccccc2)C1=O (configuration not stated) | 660 s |
| COC(=O)c1ccc(CN2CCN(CCN3C(=O)C4C5C=CC(C5)C4C3=O)CC2)cc1 (configuration not stated) | 561 s |
| Cc1ccc(F)cc1NC(=O)CSc1ccc(N2CCCC(C(=O)NC3CC3)C2)nn1 (configuration not stated) | 664 s |
| O=C(c1ccoc1)N1CCc2c(c(CO)nn2Cc2ccccc2)C1 | 659 s |
| OC1(c2ccccn2)CCOC2(CCN(Cc3cccc(C(F)(F)F)c3)CC2)C1 (configuration not stated) | 592 s |
| CC(C)n1cnc(S(=O)(=O)N2CCC(C(=O)NCc3ccc(F)cc3)CC2)c1 | 721 s |
| COc1ccc(OC)c(NC(=O)CCc2c(C)nn(-c3cc(N(C)C)ncn3)c2C)c1 | 822 s |
| COc1ccc(NS(=O)(=O)c2cc(-c3nc(C)c(C(=O)N4CCCC4)s3)n(C)c2)c(OC)c1 | 794 s |
| Cc1cc(NS(=O)(=O)c2cc(-c3[nH]ncc3C(=O)N3CCCCC3)oc2C)ccc1F | 783 s |
| CC1=C(C(=O)OC(C)C)C(c2cccc([N+](=O)[O-])c2)C(C(=O)OC2CN(C(c3ccccc3)c3ccccc3)C2)=C(N)N1 (configuration not stated) | 947 s |
| COc1ccc(NC(=O)NCCc2ccsc2)cc1 | 729 s |
| Cc1cc(-c2cc(S(=O)(=O)NCc3ccccc3Cl)c(C)s2)n[nH]1 | 847 s |
| Cc1cc2[nH]c(C(=O)Nc3cccc(Cl)c3C)c(CN3CCOCC3)c2s1 | 748 s |
| O=C(NCc1ccc(F)cc1F)C1CCCN(c2ncnc3c2oc2ccccc23)C1 (configuration not stated) | 762 s |
| Cc1ccc(N2CCC(NC(=O)Nc3cccc(C)c3C)C2=O)cc1C (configuration not stated) | 906 s |
| COc1cccc(CNC(=O)C2(C)CCCN(C(=O)Nc3cc(OC)cc(OC)c3)C2)c1 (configuration not stated) | 844 s |
| CC(C)N1C(=O)C(C)(C(=O)N2CCN(c3ccccc3F)CC2)Oc2cccnc21 (configuration not stated) | 1130 s |
| O=C(Nc1ccc(OCc2nnc(-c3ccc(Cl)cc3)o2)cc1)c1ccsc1 | 958 s |
| CCOc1ccc(Nc2c(C(=O)N3CCCCC3C)cnc3nc(C)ccc23)cc1 (configuration not stated) | 668 s |

| Compound | RP-LC retention time |
| --- | --- |
| Cc1ccc(CN2CCC(CNC(=O)C3CCCN(c4nccc(C)n4)C3)CC2)cc1 (configuration not stated) | 594 s |
| O=C(NCc1csc(-c2ccccc2)n1)C1CCN(C(=O)Nc2ccc(F)cc2F)CC1 | 784 s |
| Cc1ccc(NC(=O)CSc2nnc3c4cc(-c5ccc(F)cc5)nn4ccn23)cc1Cl | 1010 s |
| Cc1cc(C(=O)NCCCc2ccccc2)c2c(=O)n(C)c(=O)n(C)c2n1 | 750 s |
| COc1ccc(NC(=O)Cn2cnc3cc4c(cc32)OCCO4)cc1Cl | 658 s |
| Cc1cccc(NC(=O)N2CCN(c3nc(C)cc(Nc4ccccc4)n3)CC2)c1 | 733 s |
| O=S(=O)(NCC1(c2ccc(F)cc2)CC1)c1ccc2c(c1)OCCO2 | 918 s |
| CCOC(=O)c1ccc(NC(=O)Cn2ccc3ccc(-c4nnc(C)o4)cc32)cc1 | 944 s |
| CCNC(=O)Nc1ccc2c(c1)CN(S(=O)(=O)CC)CCO2 | 660 s |
| COC(=O)c1c(C)[nH]c(C(=O)N2CCC(CC(=O)NCCc3ccco3)CC2)c1C | 683 s |
| O=C(CCc1nnc2ccc(N3CCCCC3)nn12)N1CCN(c2ccccn2)CC1 | 597 s |
| COc1ccc2c(=O)c(C(=O)c3ccncc3)cn(CC(=O)NC3CCCCC3)c2c1 | 655 s |
| CC(C)C(=O)Nc1ccc(-n2cnc(C(=O)NC3CCCCC3)c2)nc1 | 765 s |
| C/C=C1\NC(=O)[C@H]2CSSCC/C=C/[C@H](CC(=O)N[C@H](C(C)C)C(=O)N2)OC(=O)C(C(C)C)NC1=O (some centres not stated) | 808 s |
| Cc1ccc(CN2CCC3(CC2)CC(O)(c2ccccn2)CCO3)nc1 (configuration not stated) | 539 s |
| COc1ccc2[nH]cc(CCNC(=O)c3ccccc3NC(=O)C3=C(C)OCCS3)c2c1 | 938 s |
| Cc1oc(C2CCN(S(=O)(=O)c3ccc(F)cc3)CC2)nc1C(=O)N1CCOCC1 | 789 s |
| O=C(Cc1ccsc1)NCCn1c(=O)n(Cc2ccccc2)c2cccnc21 | 772 s |
| COc1cccc(-c2cc3n(n2)C(NCCc2cccs2)CNC3=O)c1 (configuration not stated) | 838 s |
| O=c1cc(-c2ccc(Cl)cc2)[nH]c2ccccc12 | 869 s |
| Cc1ccc(NC(=O)N2CCN(Cc3nc4ccccc4o3)CC2)cc1 | 689 s |
| Cc1cc(-c2c(C)sc(C)c2S(=O)(=O)Nc2ccc(F)c(Cl)c2)n[nH]1 | 1120 s |

| Compound | RP-LC retention time |
| --- | --- |
| Cn1cnc(S(=O)(=O)N2CCC3(CC2)N(c2ccccc2)C(=O)CS3=O)c1 (configuration not stated) | 593 s |
| CCc1ccc2oc(=O)cc(CN3CCN(c4ccccn4)CC3)c2c1 | 669 s |
| CCc1nnc(-c2ccc3ccn(CC(=O)Nc4ccc(C(=O)OC)cc4)c3c2)o1 | 811 s |
| Cc1noc2ncn(CC(=O)Nc3ccccc3F)c(=O)c12 | 732 s |
| COc1c(C)cc(S(=O)(=O)NC2CC(C)(C)NC(C)(C)C2)cc1C | 575 s |
| CCNc1cc(N2CCC(CCC(=O)N3CCC(COC)CC3)CC2)ncn1 | 631 s |
| CCCN(C)c1nccn2c(=O)n(CC(=O)Nc3ccc(C)c(Cl)c3)nc12 | 765 s |
| CCC(=O)N(C1CCOCC1)C1CCN(S(=O)(=O)c2ccc(OC)cc2)CC1 | 800 s |
| CCCNC(=O)N1CCCCCC1CN1CCOCC1 (configuration not stated) | 580 s |
| CCc1ccc(NS(=O)(=O)c2ccc3c(c2)C(=O)N(C)c2ncccc2O3)cc1 | 1010 s |
| N#Cc1cccc(C(=O)NC2CCN(c3cc(-c4cccs4)[nH]n3)C2)c1 (configuration not stated) | 701 s |
| CN(C)[C@@H]1CN(C(=O)c2ccsc2)CC[C@]1(O)c1ccccc1 | 576 s |
| Cc1ccc(Nc2ccc(NC(=O)c3ccccc3F)cc2)nn1 | 568 s |
| O=C(c1ccc[nH]1)N1CCC2(CC1)NC(=O)N(Cc1ccc(Cl)cc1)C2=O | 761 s |
| CC(=O)N(Cc1ccc(F)cc1)Cc1ccc2c(c1)CN(C(=O)C(C)C)CCO2 | 804 s |
| CCc1nc2cccnc2n1CCN1CCN(C(=O)Nc2ccc3c(c2)OCO3)CC1 | 579 s |
| CCc1ccc(NC(=O)C2CCN(S(=O)(=O)c3cc(C(=O)N4CCCC4)cs3)CC2)cc1 | 922 s |
| CCS(=O)(=O)Nc1ccc2nc(N3CCN(c4ccccc4OC)CC3)cc(C(=O)O)c2c1 | 633 s |
| CCCN(C)c1nccn2c(=O)n(CC(=O)Nc3cccc(C)c3)nc12 | 687 s |
| CCc1ccc(NC(=O)N2CCC(n3c(-c4ccco4)nc4cccnc43)C2)cc1 (configuration not stated) | 816 s |
| Cc1c(C(=O)N2CCSCC2)cnn1-c1cc(-c2nc(C3CC3)no2)ccn1 | 949 s |
| CCc1nn2c(CNS(=O)(=O)Cc3cccc(F)c3)c(-c3ccccc3)nc2s1 | 972 s |

| Compound | RP-LC retention time |
| --- | --- |
| O=C1CC(c2noc(-c3ccccc3)n2)CN1c1ccc(F)c(Cl)c1 (configuration not stated) | 1070 s |
| Cc1ccc(C)c(NC(=O)Cn2ccc3ccc(-c4nnc(C)o4)cc32)c1 | 1150 s |
| CCc1ccccc1NC(=O)N1CCC(n2cnc3c(C)cccc3c2=O)CC1 | 853 s |
| CCS(=O)(=O)N1CCCc2cc(C(=O)NCC3CCCO3)ccc21 (configuration not stated) | 708 s |
| Cc1ccnc(N2CCC(C(=O)NCCCN3CCCC(C)C3)CC2)n1 (configuration not stated) | 568 s |
| O=C(COc1ccc(F)cc1)NCC(=O)N1CCCc2ccccc21 | 850 s |
| COc1ccccc1N1C(=O)C2ON(c3ccccc3)C(c3cccc([N+](=O)[O-])c3)C2C1=O (configuration not stated) | 615 s |
| Cc1ccn2c(NC(=O)c3cccc(Br)c3)c(-c3ccccc3)nc2c1 | 715 s |
| Cc1nnc2c(N3CCN(c4ccccn4)CC3)nc3ccc(C(=O)c4ccccc4)cc3n12 | 672 s |
| Cc1nnc2ccc(N3CCN(C(=O)CSc4nc5ccccc5s4)CC3)nn12 | 652 s |
| CC(C)C(=O)NCc1csc(C2CCCN(C(=O)CC3CCCCC3)C2)n1 (configuration not stated) | 816 s |
| Cc1ncnc2c1CCC(=O)N2CC1CCCCC1 | 848 s |
| Cc1cccc(-c2nnc(-c3nc(NCCN4CCOCC4)c4ccccc4n3)o2)c1 | 662 s |
| Cc1ccn(-c2ccc(C(=O)NC3CCCCC3)cn2)n1 | 885 s |
| CC1=C(c2ccccc2)S(=O)(=O)N=C1N1CCCN(C(=O)Cc2ccsc2)CC1 | 721 s |
| O=C(Cn1c(=O)oc2ccccc21)N1CC(n2cc(COCc3ccccc3)nn2)C1 | 773 s |
| C=CCn1c(=O)c2ccccc2n(Cc2nc(-c3ccc(C)cc3)no2)c1=O | 1070 s |
| N#Cc1cccc(NC(=O)Cn2cccc(-c3nc(-c4ccc(Br)cc4)no3)c2=O)c1 | 958 s |
| CCC(=O)N1CCc2cc(-c3ccc(C(=O)NCCc4ccco4)cc3)ccc21 | 888 s |
| OC1(c2ccccc2)CCN(Cc2ccccc2)CC1 | 553 s |
| CCCCOc1ccc(C(=O)N2CCN(c3cc(C)nc(N4CCCC4)n3)CC2)cc1 | 788 s |
